Measured values: US7384933B2, “Derivatives of 2-hydroxytetrahydrofuran and their use as medicaments” (priority 2003, dated 2008)

Work on `NC(=O)[C@H](Cc1ccccc1)N(C(=O)CNC(=O)COc1ccc2c(c1)Nc1ccccc1S2)[C@H]1CCOC1O` (stereo partly drawn) [Example 57, N-[(10H-phenothiazin-2-yloxy)acetyl]glycyl-N^1-[(3S)-2-hydroxytetrahydrofuran-3-yl]-L-phenylalaninamide] yielded a melting point of 207 to 208 °C.
